Experimental data as given in publication PMC3325260, “Label-Free Phenotypic Profiling Identified D-Luciferin as a GPR35 Agonist” (PLoS ONE, 2012).
Where two headings read alike, the source gives them in different places. One block for each molecule: values may come before it.

Tests used:
[1] = target: T1, endogenous GPR35 in HT-29 cells (Homo sapiens, UniProt Q9HC97); assay: DMR agonist assay in native HT-29 cells; format: cell-based; set-up: endogenous in cells; host or cells: HT-29; conditions: for DMR response of the compound alone: HT-29, up to 64 µM; for maximal P-DMR amplitude: HT-29 cells, picometer shift of resonant wavelength, n = 36
T1 sequence (Q9HC97 whole entry): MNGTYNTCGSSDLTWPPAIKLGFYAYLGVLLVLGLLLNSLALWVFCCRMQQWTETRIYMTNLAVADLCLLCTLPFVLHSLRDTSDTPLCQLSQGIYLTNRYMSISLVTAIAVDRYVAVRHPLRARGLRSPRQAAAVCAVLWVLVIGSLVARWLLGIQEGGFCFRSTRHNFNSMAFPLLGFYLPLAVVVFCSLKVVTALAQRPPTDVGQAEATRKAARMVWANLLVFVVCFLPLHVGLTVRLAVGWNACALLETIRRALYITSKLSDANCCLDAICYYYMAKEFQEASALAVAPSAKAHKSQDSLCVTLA
Text: First, multiple DMR assays were employed to characterize the pharmacology of D-luciferin in HT-29 cells, a native cell line endogenously expressing GPR35 [18]. […] Second, D-luciferin-induced internalization of endogenous GPR35 in HT-29 cells was examined. Third, D-luciferin-induced ERK phosphorylation in the absence and presence of GPR35 antagonists was examined in HT-29 cells. Fourth, Tango β-arrestin translocation assay was finally employed to examine the agonism of D-luciferin to cause β-arrestin translocation in an engineered cell line.
(§1) All DMR assays were performed using Epic® system (Corning Inc.). Epic® is a wavelength interrogation reader system tailored for resonant waveguide grating biosensors in microtiter plates. This system consists of a temperature-control unit (26°C), an optical detection unit, and an on-board liquid handling unit with robotics. The detection unit is centered on integrated fiber optics, and enables kinetic measures of cellular responses with a time interval of ∼15 sec. Cells were directly seeded in Epic® plates and cultured overnight to form confluent monolayer in the cell culture medium. The cell seeding density was 32, 000 cells per well, unless specifically mentioned. After being washed twice, the cells were maintained with HBSS (1× Hanks balanced salte buffer, 10 mM Hepes-KOH, pH 7.1) and further incubated inside the system for 1 hr. […] The assay vehicle containing equal amount of DMSO (dimethyl sulfoxide) was used as a control. All ligand-induced DMR were background corrected.

[2] = target: T1, endogenous GPR35 in HT-29 cells; assay: DMR antagonist assay (antagonist pre-treatment, then agonist); format: cell-based; set-up: endogenous in cells; host or cells: HT-29; conditions: for IC50: 5 min pre-stimulation with antagonist, then D-luciferin at 32 µM, n = 4, read-out: apparent IC50 of blocking the DMR induced by D-luciferin
Protocol: as §1, with “Epic®” for “All DMR assays were performed using Epic® system (Corning Inc.). Epic®”

[3] = tested on: ERK1/2 phosphorylation in HT-29 cells; assay: ERK phosphorylation, Western blot; format: cell-based, human; conditions: for effect on the D-luciferin-induced ERK phosphorylation: 5 min after 32 µM D-luciferin, antagonist at different doses
Text: Since ligand-directed functional selectivity or biased agonism is quite common to many, if not all, GPCRs, we next examined the activity of D-luciferin using ERK phosphorylation, receptor internalization and Tango β-arrestin translocation assays. ERK phosphorylation is a hallmark of the activation and signaling of many GPCRs including GPR35 [20].
The phosphorylated ERK and total ERK were blotted, and actin was used as control. Representative images obtained from 2 independent measurements were used.
The p44/42 MAP kinases were examined using Western blotting. Whole cell lysates were collected after the cells were treated with a compound or DMSO for 1 hr. Equivalent gel loading was confirmed by probing with anti-actin body. The total ERK1/2 and phosphorylated ERK1/2 were blotted using respective antibodies.

[4] = target: T1, endogenous GPR35 in HT-29 cells; assay: cell-based
Protocol: as §1

[5] = target: T1, endogenous GPR35 in HT-29 cells
Protocol: All data represent mean ± s.d. from 2 independent measurements, each in duplicate (n = 4).
as §1

[6] = target: T1, endogenous GPR35 in HT-29 cells; conditions: 32 µM, 1 hr
Text: Representative images obtained from 2 independent measurements were used.

[7] = target: T2, human GPR35 in Tango GPR35-bla U2OS cells (Homo sapiens, UniProt Q9HC97)
T2 sequence (Q9HC97 whole entry): as above

[8] = target: T2, human GPR35 in Tango GPR35-bla U2OS cells; assay: cell-based; conditions: read-out: maximal response relative to the zaprinast maximal response
[9] = tested on: purified luciferase enzyme; conditions: binding to purified luciferase enzyme; cited from earlier work
[10] = target: T1, endogenous GPR35 in HT-29 cells; set-up: endogenous in cells; host or cells: HT-29; method as in PMID 21950657; conditions: up to 64 µM; cited from earlier work
[11] = target: T1, endogenous GPR35 in HT-29 cells; set-up: endogenous in cells; host or cells: HT-29; method as in PMID 21950657; conditions: cited from earlier work

Structure (SMILES): CC(/C=C1\SC(=S)N(CCCC(=O)Nc2ccc(C(=O)O)c(O)c2)C1=O)=C\c1ccccc1 [ML145]
effect on the D-luciferin-induced ERK phosphorylation [3]: dose-dependently attenuated

Structure (SMILES): Cc1c(C(=O)O)sc2c(Br)csc12 [YE210]
ERK phosphorylation ([3]; 1 µM, 30 min after treatment): led to ERK phosphorylation

Structure (SMILES): CCCOc1ccccc1-c1nc2nn[nH]c2c(=O)[nH]1 [zaprinast]
ERK phosphorylation ([3]; 1 µM, 30 min after treatment): led to ERK phosphorylation
maximal P-DMR amplitude [1]: 276±17 pm

Structure (SMILES): O=C(O)[C@H]1CSC(c2nc3ccc(O)cc3s2)=N1 [D-luciferin, (S)-2-(6′-hydroxy-2′-benzothiazolyl)thiazoline-4-carboxylic acid]
IC50 [4]: 6.8 ± 0.7 µM
effect on the potency of pamoic acid in DMR co-stimulation ([5]; D-luciferin at different fixed doses, up to 50 µM): did not alter the potency
effect on DMR of pamoic acid at 200 nM (saturating concentration) ([5]; high doses of D-luciferin): reduced the DMR in a dose-dependent manner
time of maximum ERK phosphorylation after stimulation ([3]; 32 µM D-luciferin): 2 min
ERK phosphorylation ([3]; 32 µM D-luciferin for different times): led to phosphorylation of ERK in a time-dependent manner
internalization of endogenous GPR35 [6]: remarked internalization
effect on the maximal response of zaprinast, Tango co-stimulation ([7]; 100 µM D-luciferin): only slightly suppressed
effect on the maximal response of zaprinast, Tango co-stimulation ([7]; 1 mM D-luciferin): suppressed the maximal response
effect on the potency of zaprinast, Tango co-stimulation ([7]; D-luciferin at 100 µM and 1 mM): little impact
Emax [8]: 20%
Km [9]: 16 µM
maximal P-DMR amplitude [1]: 198±12 pm

Structure (SMILES): O=C(O)c1cc2ccccc2c(Cc2c(O)c(C(=O)O)cc3ccccc23)c1O [pamoic acid]
ERK phosphorylation ([3]; 1 µM, 30 min after treatment): much lower ERK phosphorylation

Further lines, with some results ahead:

DMR response of the compound alone [1]: little response
IC50 [2]: 5000 ± 900 nM
Structure (SMILES): COC(=O)c1cnn(-c2ccc(F)cc2F)c1/C=N/NC(N)=S [SPB05140]

DMR response of the compound alone [1]: little response
IC50 [2]: 2600 ± 300 nM
Structure (SMILES): COC(=O)c1cnn(-c2ccc(F)cc2F)c1/C=N/NC(=S)Nc1ccccc1 [SPB05143]

IC50 [2]: 1500 ± 200 nM
D-luciferin DMR in presence of antagonist at the two highest doses ([2]; SPB05142 at 16 and 32 µM, D-luciferin 32 µM): small but detectable negative DMR signal
Structure (SMILES): COC(=O)c1cnn(-c2ccc(F)cc2F)c1C=NNC(=S)NC(C)(C)C [SPB05142, methyl-5-[(tert-butylcarbamothioylhydrazinylidene)-methyl]-1-(2,4-difluorophenyl)-pyrazole-4-carboxylate]
ERK phosphorylation by compound alone ([3]; 25 µM): weak but detectable ERK phosphorylation
effect on the D-luciferin-induced ERK phosphorylation [3]: dose-dependently attenuated
DMR response of the compound alone [10]: did not lead to any detectable DMR
blockade of the DMR induced by zaprinast [11]: almost completely blocked
